Data as given in patent US8575186B2, “Epiminocycloalkyl[b] indole derivatives as serotonin sub-type 6 (5-HT6) modulators and uses thereof” (Albany Molecular Research, Inc., priority 2009, dated 2013).
Like-named read-outs stand apart in the source and are kept apart here.

Assays:
human 5-HT6 receptor = human 5-HT6 receptor (Homo sapiens (Human), UniProt P50406); experiment: radioligand binding assay (SPA format), [N-methyl-3H]-LSD; conditions: read-out: human 5HT6 Ki, human 5-HT6 receptor membranes, 10 nM [3H]-LSD
human 5-HT6 receptor, sequence (P50406 whole entry): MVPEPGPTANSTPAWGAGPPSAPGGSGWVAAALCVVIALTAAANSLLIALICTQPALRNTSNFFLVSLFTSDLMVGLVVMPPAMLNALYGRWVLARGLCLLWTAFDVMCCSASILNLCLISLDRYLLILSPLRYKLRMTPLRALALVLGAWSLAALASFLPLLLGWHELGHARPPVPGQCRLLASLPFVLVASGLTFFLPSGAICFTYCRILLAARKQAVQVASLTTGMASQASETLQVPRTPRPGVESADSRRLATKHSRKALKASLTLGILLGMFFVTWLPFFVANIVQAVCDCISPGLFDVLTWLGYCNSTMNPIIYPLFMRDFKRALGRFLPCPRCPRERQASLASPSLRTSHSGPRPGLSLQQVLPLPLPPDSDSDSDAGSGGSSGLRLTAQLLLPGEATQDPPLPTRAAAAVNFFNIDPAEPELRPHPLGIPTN

SMILES	melting point	Ki (human 5-HT6 receptor) [nM]	Ki (human 5-HT6 receptor; hydrochloride) [nM]
Cl.Cn1c2c(c3cc(S(=O)(=O)c4ccc(F)cc4)ccc31)C1CCC(C2)N1 (centres unmarked) [Example 28, 2-(4-Fluorophenyl)sulfonyl-5-methyl-5,6,7,8,9,10-hexahydro-7,10-epiminocyclohepta[b]indole hydrochloride]	210 to 214 °C	60	
Cl.Cn1c2c(c3cc(S(=O)(=O)c4ccc(C#N)cc4)ccc31)C1CCC(C2)N1 (centres unmarked) [Example 30, 2-(4-Cyanophenyl)sulfonyl-5-methyl-5,6,7,8,9,10-hexahydro-7,10-epiminocyclohepta[b]indole hydrochloride]	216 to 218 °C		410
COc1ccc(S(=O)(=O)c2ccc3c(c2)c2c(n3C)CC3CCC2N3)cc1.Cl (centres unmarked) [Example 31, 2-(4-Methoxyphenyl)sulfonyl-5-methyl-5,6,7,8,9,10-hexahydro-7,10-epiminocyclohepta[b]indole hydrochloride]	210 to 212 °C	44	
Cl.Cn1c2c(c3cc(S(=O)(=O)c4ccc(O)cc4)ccc31)C1CCC(C2)N1 (centres unmarked) [Example 32, 2-(4-Hydroxyphenyl)sulfonyl-5-methyl-5,6,7,8,9,10-hexahydro-7,10-epiminocyclohepta[b]indole hydrochloride]	210 to 212 °C	11	
Cl.Cn1c2c(c3cc(S(=O)(=O)c4cccc(F)c4)ccc31)C1CCC(C2)N1 (centres unmarked) [Example 35, 2-(3-Fluorophenyl)sulfonyl-5-methyl-5,6,7,8,9,10-hexahydro-7,10-epiminocyclohepta[b]indole hydrochloride]	240 to 245 °C	4.2	
Cc1cccc(S(=O)(=O)c2ccc3c(c2)c2c(n3C)CC3CCC2N3)c1.Cl (centres unmarked) [Example 37, 2-(3-Methylphenyl)sulfonyl-5-methyl-5,6,7,8,9,10-hexahydro-7,10-epiminocyclohepta[b]indole hydrochloride]	194 to 196 °C	3.7	
Cl.Cn1c2c(c3cc(S(=O)(=O)c4cccc(OC(F)F)c4)ccc31)C1CCC(C2)N1 (centres unmarked) [Example 40, 2-(3-Difluoromethoxyphenyl)sulfonyl-5-methyl-5,6,7,8,9,10-hexahydro-7,10-epiminocyclohepta[b]indole hydrochloride]	186 to 190 °C (dec.)	5.8	
COc1cccc(S(=O)(=O)c2ccc3c(c2)c2c(n3C)CC3CCC2N3)c1.Cl (centres unmarked) [Example 41, 2-(3-Methoxyphenyl)sulfonyl-5-methyl-5,6,7,8,9,10-hexahydro-7,10-epiminocyclohepta[b]indole hydrochloride]	186 to 190 °C	17	
Cl.Cn1c2c(c3cc(S(=O)(=O)c4cccc(O)c4)ccc31)C1CCC(C2)N1 (centres unmarked) [Example 42, 2-(3-Hydroxyphenyl)sulfonyl-5-methyl-5,6,7,8,9,10-hexahydro-7,10-epiminocyclohepta[b]indole hydrochloride]	208 to 212 °C	11	
Cl.Cn1c2c(c3cc(S(=O)(=O)c4cccc(N)c4)ccc31)C1CCC(C2)N1 (centres unmarked) [Example 44, 2-(3-Aminophenyl)sulfonyl-5-methyl-5,6,7,8,9,10-hexahydro-7,10-epiminocyclohepta[b]indole hydrochloride]	220 to 222 °C	6.3	
CNc1cccc(S(=O)(=O)c2ccc3c(c2)c2c(n3C)CC3CCC2N3)c1.Cl (centres unmarked) [Example 46, 2-[(3-N-Methylamino)phenyl]sulfonyl-5-methyl-5,6,7,8,9,10-hexahydro-7,10-epiminocyclohepta[b]indole hydrochloride]	208 to 212 °C (dec.)	6.5	
CC(C)Nc1cccc(S(=O)(=O)c2ccc3c(c2)c2c(n3C)CC3CCC2N3)c1.Cl (centres unmarked) [Example 47, 2-[(3-N-Isopropylamino)phenyl]sulfonyl-5-methyl-5,6,7,8,9,10-hexahydro-7,10-epiminocyclohepta[b]indole hydrochloride]	208 to 212 °C (dec.)	11	
Cl.Cn1c2c(c3cc(S(=O)(=O)c4cccc5ccccc45)ccc31)C1CCC(C2)N1 (centres unmarked) [Example 49, 2-(1-Napthyl)sulfonyl-5-methyl-5,6,7,8,9,10-hexahydro-7,10-epiminocyclohepta[b]indole hydrochloride]	229 to 231 °C	1.4	
Cl.Cn1c2c(c3cc(S(=O)(=O)c4ccc(Cl)cc4)ccc31)C1CCC(C2)N1 (centres unmarked) [Example 51, 2-(4-Chlorophenyl)sulfonyl-5-methyl-5,6,7,8,9,10-hexahydro-7,10-epiminocyclohepta[b]indole hydrochloride]	310 to 320 °C	37	
Cc1ccccc1S(=O)(=O)c1ccc2c(c1)c1c(n2C)CC2CCC1N2.Cl (centres unmarked) [Example 52, 2-(2-Methylphenyl)sulfonyl-5-methyl-5,6,7,8,9,10-hexahydro-7,10-epiminocyclohepta[b]indole hydrochloride]	186 to 188 °C	11	
Cl.Cn1c2c(c3cc(S(=O)(=O)c4cc(Cl)cc(Cl)c4)ccc31)C1CCC(C2)N1 (centres unmarked) [Example 54, 2-(3,5-Dichlorophenyl)sulfonyl-5-methyl-5,6,7,8,9,10-hexahydro-7,10-epiminocyclohepta[b]indole hydrochloride]	190 to 195 °C	10	
Cl.Cn1c2c(c3cc(S(=O)(=O)c4cc(F)cc(F)c4)ccc31)C1CCC(C2)N1 (centres unmarked) [Example 55, 2-(3,5-Difluorophenyl)sulfonyl-5-methyl-5,6,7,8,9,10-hexahydro-7,10-epiminocyclohepta[b]indole hydrochloride]	230 to 235 °C (dec.)	8.5	
Cl.Cn1c2c(c3cc(S(=O)(=O)c4cncc(Cl)c4)ccc31)C1CCC(C2)N1 (centres unmarked) [Example 58, 2-[3-(5-Chloro)-pyridine]sulfonyl-5-methyl-5,6,7,8,9,10-hexahydro-7,10-epiminocyclohepta[b]indole hydrochloride]	202 to 205 °C (dec.)	44	
Cl.Cn1c2c(c3cc(S(=O)(=O)c4cncc(F)c4)ccc31)C1CCC(C2)N1 (centres unmarked) [Example 59, 2-[3-(5-Fluoro)-pyridine]sulfonyl-5-methyl-5,6,7,8,9,10-hexahydro-7,10-epiminocyclohepta[b]indole hydrochloride]	212 to 215 °C	139	
Cl.Cn1c2c(c3cc(S(=O)(=O)c4ccccn4)ccc31)C1CCC(C2)N1 (centres unmarked) [Example 60, 2-(2-Pyridine)sulfonyl-5-methyl-5,6,7,8,9,10-hexahydro-7,10-epiminocyclohepta[b]indole hydrochloride]	222 to 225 °C	193	
Cl.Cn1c2c(c3cc(S(=O)(=O)c4cccnc4)ccc31)C1CCC(C2)N1 (centres unmarked) [Example 61, 2-(3-Pyridine)sulfonyl-5-methyl-5,6,7,8,9,10-hexahydro-7,10-epiminocyclohepta[b]indole hydrochloride]	226 to 228 °C	156	
Cl.Cn1c2c(c3cc(S(=O)(=O)n4cc(Cl)c5ccccc54)ccc31)C1CCC(C2)N1 (centres unmarked) [Example 67, 2-[1-(3-Chloro)-indole]sulfonyl-5-methyl-5,6,7,8,9,10-hexahydro-7,10-epiminocyclohepta[b]indole hydrochloride]	204 to 206 °C	4.1	
